# Patent US20200129523A1, “SHIP INHIBITION TO INDUCE EXPRESSION OF GRANULOCYTE COLONY STIMULATING FACTOR IN A SUBJECT” (THE RESEARCH FOUNDATION FOR THE STATE UNIVERSITY OF NEW YORK, priority 2014, published 2020)
# “Also recorded” adds a separate entry of the source.
# Assays:
# HSC compartment = assay: Flow cytometric quantitation of hematopoietic stem/progenitor populations and cellularity in bone marrow of treated mice; format: in vivo, C57BL/6NTac mice; conditions: K118 10 mg/kg i.p. 5 days, vs H2O
# Protocol: HSC phenotype, cell-cycle progression, G-CSF neutralization, and CXCR4 MFI determination by FACS analysis was performed on whole bone marrow (WBM) cells harvested from a tibia and femur pair obtained from SHIPi and vehicle treated 8-12 week old male C57BL/6NTac mice (Taconic). Generation of the CD45.1×CD45.2 strain utilized in the CRU assay were obtained by intercrossing C57BL6/J (CD45.2) and B6.SJL (CD45.1), as previously described.^5 The SUNY Upstate Medical University Committee for Humane Use of Animals approved all animal experiments.
# In vivo administration of 3AC was previously described.^14 Briefly, 3AC is resuspended as an emulsion in 0.3% Klucel/H20. Mice were treated via intraperitoneal injection every 24 hrs for 5 days at a final concentration of 26.5 mg/kg. Analysis and transplants were performed on day 6. The 3AC derivative K118 (Soluble SHIPi) was suspended in pure H2O and heated at 100° C. for ˜15 min to allow the compound to enter solution. The delivery method was the same as with 3AC, however, the mice were treated for 5 days at a final concentration of 10 mg/kg. Vehicle cohorts for 3AC were treated with 0.3% Klucel/H20 and K118 were treated with pure H2O.
# Cell isolation was performed according to method detailed in Hazen et al.^6 Briefly, WBM was flushed from both femurs and tibias per mouse with a 25-gauge needle, red blood cell lysed (eBioscience), and resuspended in staining media comprised of Hanks Buffered Saline Solution (HBSS), 2% heat inactivated fetal bovine serum (FBS), and 10 mM HEPES (Sigma). The cells harvested for the CRU assay were flushed, red blood cell lysed, washed, and resuspended in sterile phosphate buffered saline (PBS). Peripheral blood mononuclear cells (PBMC) were collected via submandibular bleed in EDTA Micorvette tubes (SARSTEDT).
# All antibodies were from BD Biosciences or eBioscience. All WBM, PBMC and BM derived MSC cell populations were Fc blocked on ice for 10 min prior to antibody staining. Global reconstitution was determined by staining PBMC with CD45.1-PeCy7 and CD45.2-APC. Multi-lineage repopulation was determined by staining PBMC with CD3-FITC (145-2C11), CD19-PerCP5.5 (1D3), Mac1-PE (M1/70), Gr1-Alexa700 (RB6-8C5) and NK1.1-APC-Cy7 (PK136). The Lin−cKit+Sca1+CD34−Flk2− (LSKF34−) phenotype was utilized to determine frequency of LT-HSC, ST-HSC, and MPP; the stain was comprised of Lin-PerCP 5.5, cKit-APC (2B8), Sca1-PeCy7 (D7), CD34-FITC (RAM34), Flk2-PE (A2F10). LSKF-CXCR4 stain was used to determine surface expression of the homing marker CXCR4. All cells were washed twice with staining media, resuspended in staining media plus DAPI for dead cell exclusion, and then analyzed on a flow cytometer LSRII (BD Biosciences). All flow cytometry data was analyzed using FlowJo (9.4.3) software.
# HSC = assay: CRU assay (competitive repopulating units), primary and secondary; format: in vivo, mice
# Protocol: CD45.1^+45.2^+-recipient mice were given a split dose of 550 Rads (x-ray source, RS2000-RAD source technologies, inc.) 4 hours apart for a lethal total dose of 1100 Rads. WBM (5×10^5) cells from 3AC (CD45.2) treated mice were competed with WBM cells from vehicle (CD45.1) treated mice and injected retro-orbitally into CD45.1^+45.2^+ hosts. PBMC multi-lineage reconstitution was evaluated every month post-transplant for 4 months. Transplanted mice were euthanized and serially transplanted to determine self-renewal capacity. Repopulating Units (RU) determination was previously decribed.^15 Briefly, RU=(C×CD45.2 repopulation %)/(100−CD45.2 repopulation %) where C=10^5 competitor cells.^6
# Normal Repopulating units (RU) are calculated based on total number of competitor cells transplanted. Due to the expansion in the bone marrow compartment of SHIPi treated mice, we calculated the absolute RU numbers based on RU output determined by CRU assay and total BM cellularity. Total BM cellularity was determined via hemacytometer (BioRAD, TC20 cell counter) based on a total BM cells obtained from an intact set of femurs and tibias for each mouse in the study. Absolute RU=(Total BM cellularity/5×10^5)×RU.
# PDGFRα+CD51+ MSC = assay: In vivo MSC immunophenotyping by flow cytometry; parameters: species or system mice; conditions: K118 10 mg/kg i.p. 5 days, vs H2O
# Protocol: PDGFRα^+CD51^+ MSC were detected using methods and reagents as described by Iyer et al.^8 Femurs, tibias, humeri, ulnas, radii, and pelvis were dissected; the bone fragments were cleaned, cut into tiny pieces, and then crushed using a mortar and pestle. The bone chips were then washed several times in HBSS supplemented with 2% heat-inactivated FBS (HBSS/2% HI-FBS) and HBSS only, and then spun at 350×g for 5 mins. The pellet was re-suspended in 3 mg/mL type I collagenase (Worthington) and 15 μg/mL DNAase (Sigma, St. Louis, Mo.) dissolved in HBSS and incubated at 37° C. for 30 min at 110 rpm, this step was repeated twice. Following incubation, mononuclear cells were obtained using a Ficoll gradient ([…] and Histopaque-1077; Sigma, St. Louis, Mo.), and were then used for further analysis. Cells were stained with antibodies as described in Iyer et al.^8
# MSC (CFU-F) = assay: Colony forming unit (CFU-F) assay on BM cells of treated mice; format: in vivo; conditions: K118 10 mg/kg i.p. 5 days, vs H2O
# Protocol: Primary whole BM cells (adherent+non-adherent) were plated in 60-mm plates (triplicates, 3×10^6 cells per plate) in CFU-F growth media: DMEM, Mesencult Serum (Stem Cell Technologies) with 1% penicillin-streptomycin-glutamine. Cells were cultured for approximately 7 days, after which cells were fixed with 70% ethanol and stained for alkaline phosphatase activity using the Leukocyte Alkaline Phosphatase Kit (Sigma) and counter-stained with neutral red (Sigma). Colonies (ALP^+ cells/colonies) were counted using the Software program “Image J” (National Institutes of Health Research Services Branch).
# G-CSF = G-CSF ELISA of serum of treated mice; format: in vivo; conditions: K118 10 mg/kg i.p. 5 days, vs H2O; hydrochloride, 10 mg/kg
# Protocol: Peripheral blood was collected in serum separation microvette tubes (SARSTEDT). Tubes were kept at room temperature for 2 hrs. and then spun at 2000×g for 20 min as per manufacturers recommendation. Serum levels of G-CSF in treated mice were determined using a Mouse G-CSF Quantikine Elisa kit (R&D systems).
compound,measurement,setting,value
"C[C@@]12CCC[C@H]1[C@@H]1CC[C@H]3C[C@@H](N)CC[C@]3(C)[C@H]1CC2.Cl [K118, 3β-amino-5α-androstane hydrochloride]",BM cellularity,HSC compartment,significant increase
same,LT-HSC in BM,HSC compartment,significant increases
same,MPP in BM,HSC compartment,significant increases
same,ST-HSC in BM,HSC compartment,significant increases
same,absolute CRU numbers,HSC; K118 treated vs H2O treated donors,significant increase
same,CRU activity,"HSC; primary CRU, WBM of K118 treated vs H2O treated mice",significant increase
same,MSC numbers in BM,PDGFRα+CD51+ MSC,significant expansion
same,frequency of CFU-F in BM,MSC (CFU-F),significantly increased frequency
same,G-CSF production (serum),G-CSF,significant increase; also recorded: super-induces
